25 molecules from patent publication US12187729B2, “Compounds having PDE9A inhibitory activity, and pharmaceutical uses thereof” (KOREA RESEARCH INSTITUTE OF CHEMICAL TECHNOLOGY, priority 2018, dated 2025) can be followed below.

For the experiment, the target named is PDE9A (Homo sapiens (Human), UniProt O76083). The experiment in a line: PDE9A inhibitory activity, fluorescence polarization assay (IMAP-FP screening express kit). In kind it is biochemical. Particulars: enzyme PDE9A 5 ng/ml, Fl-cGMP substrate 100 nM, room temperature 1 hour. The protocol: The inhibitory activity of the representative compounds according to the present invention against phosphodiesterase 9A was tested based on the polarization assay (IMAP-FP screening express kit) provided by MDS (MDS Analytical Technologies, Sunyvale, CA, USA). As a buffer solution, a reaction solution (a reaction solution containing 0.01% Tween 20 provided by MDS was diluted 5 times, then 5 mM DTT is added) and a polarization detection solution (binding solution A and B provided by MDS were mixed at a ratio of 3:1 and IMAP binding reagent 1/600 was added) were prepared. 100 μM of the substrate (Fl-cGMP substrate; MDS) and 3.6 μg/ml of the enzyme PDE9A (ab54113; abeam) were prepared. 3.6 μg/ml PDE9A and 100 μM substrate were diluted to 20 ng/ml (final reaction concentration: 5 ng/ml) and 400 nM (final reaction concentration: 100 nM), respectively. The buffer solution used for all dilution and preparation processes was 1× reaction solution with 1 mM DTT added, and the polarization detection solution was used to induce polarization at the end.
Chain of PDE9A (O76083 whole entry): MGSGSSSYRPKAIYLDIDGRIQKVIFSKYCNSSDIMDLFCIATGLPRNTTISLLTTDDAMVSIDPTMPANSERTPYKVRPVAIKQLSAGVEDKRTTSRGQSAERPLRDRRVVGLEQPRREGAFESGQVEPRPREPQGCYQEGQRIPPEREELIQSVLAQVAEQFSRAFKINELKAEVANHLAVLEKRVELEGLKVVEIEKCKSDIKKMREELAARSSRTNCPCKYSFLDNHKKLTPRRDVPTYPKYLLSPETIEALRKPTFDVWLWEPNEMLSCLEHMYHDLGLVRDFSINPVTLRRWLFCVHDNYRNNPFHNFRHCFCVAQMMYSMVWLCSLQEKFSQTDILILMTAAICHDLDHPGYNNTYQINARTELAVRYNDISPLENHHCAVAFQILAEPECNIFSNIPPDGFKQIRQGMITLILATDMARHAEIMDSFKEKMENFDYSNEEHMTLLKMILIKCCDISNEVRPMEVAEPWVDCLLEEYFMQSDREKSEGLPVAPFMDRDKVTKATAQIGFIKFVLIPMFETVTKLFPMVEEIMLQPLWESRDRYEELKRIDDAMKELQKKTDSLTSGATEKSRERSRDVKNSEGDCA
The prepared samples were dispensed on black microplates (Multiwell 384 well plates, #3573, Corning Life Sciences, Lowell, MA, USA) using a 16-channel pipette (multi 16-channel, Finnpipette, Thermo Scientific, Essex, UK). The total reaction volume per well is 20 μl. At this time, 10 μl of 2% DMSO, 5 μl of substrate solution, and 5 μl of reaction solution were used as a negative control, and 10 μl of 2% DMSO, 5 μl of substrate solution, and 5 μl of PDE9A solution were used as a positive control. As the experimental group, 10 μl of the compound prepared in Example, 5 μl of the substrate solution, and 5 μl of the PDE9A solution were used. After pretreatment between the compound and the enzyme was performed for about […] before the enzyme-substrate reaction, 5 μl of cGMP was added to induce the enzyme reaction. During the reaction, each compound, enzyme, and substrate occupied 50%, 25%, and 25% of the total volume, respectively, and they were prepared at high concentrations of 2, 4, and 4 times, respectively, immediately before addition. After the enzymatic reaction, it was shaken lightly for 1 minute and the enzyme reaction was induced at room temperature for 1 hour. Then, 60 μl of a polarization detection solution prepared in advance was added to induce polarization.
Nanoparticles composed of trivalent metal ions are mixed in the fluorescence detection solution, which combines with phosphoric acid expose by enzymatic reaction to increase the molecular weight and induce polarization. After leaving for 2 hours at room temperature, the polarization (Fluorescence Polarization, FP) value was measured using a multilabel counter (Envision, PerkinElmer, Turku, Finland) (emission wavelength: P-535 nm, S-535 nm, excitation wavelength: 480 nm), and the result was expressed as an IC50 value, which is the concentration of the compound that inhibited PDE9A by 50% in vitro (Table 2).
`CC(C)n1ncc2c(=O)[nH]c(SCC(=O)Nc3nnc(Cl)s3)nc21` [Example 43, N-(5-chloro-1,3,4-thiadiazol-2-yl)-2-((1-isopropyl-4-oxo-4.5-dihydro-1H-pyrazolo[3,4-d]pyrimidin-6-yl)thio)acetamide] displayed an IC50 of 3 nM.
For the molecule “N-(5-(methylthio)-1,3,4-thiadiazol-2-yl)-2-((4-oxo-1-phenyl-4,5-dihydro-1H-pyrazolo[3,4-d]pyrimidin-6-yl)thio)acetamide [Example 13]”, the concentration for half-maximal inhibition (IC50) worked out at 29 nM.
With `CC(Sc1nc2c(cnn2C2CCC(F)(F)CC2)c(=O)[nH]1)C(=O)Nc1nnc(Cl)s1` (stereo not shown) [Example 48, N-(5-chloro-1,3,4-thiadiazol-2-yl)-2-((1-(4,4-difluorocyclohexyl)-4-oxo-4,5-dihydro-1H-pyrazolo[3,4-d]pyrimidin-6-yl)thio)propanamide] the figure was 0.3 nM; with `O=C(CSc1nc2c(cnn2C2CCOCC2)c(=O)[nH]1)Nc1nnc(Br)s1` [Example 33, N-(5-bromo-1,3,4-thiadiazol-2-yl)-2-((4-oxo-1-(tetrahydro-2H-pyran-4-yl)-4,5-dihydro-1H-pyrazolo[3,4-d]pyrimidin-6-yl)thio)acetamide], 0.4 nM; with `CCSc1nnc(NC(=O)C(Sc2nc3c(cnn3-c3ccccc3)c(=O)[nH]2)c2ccccc2)s1` (stereo not shown) [Example 26, N-(5-(ethylthio)-1,3,4-thiadiazol-2-yl)-2-((4-oxo-1-phenyl-4,5-dihydro-1H-pyrazolo[3,4-d]pyrimidin-6-yl)thio)-2-phenylacetamide], 9 nM.
The result for `O=C(CSc1nc2c(cnn2-c2ccccc2)c(=O)[nH]1)Nc1nncs1` [Example 4, 2-((4-oxo-1-phenyl-4,5-dihydro-1H-pyrazolo[3,4-d]pyrimidin-6-yl)thio)-N-(1,3,4-thiadiazol-2-yl)acetamide] reads 230 nM.
The result for `CCSc1nnc(NC(=O)C(C)Sc2nc3c(cnn3C3CCC(F)(F)CC3)c(=O)[nH]2)s1` (stereo not shown) [Example 28, 2-((1-(4,4-difluorocyclohexyl)-4-oxo-4,5-dihydro-1H-pyrazolo[3,4-d]pyrimidin-6-yl)thio)-N-(5-(ethylthio)-1,3,4-thiadiazol-2-yl)propanamide] reads 0.1 nM; that for `CCSc1nnc(NC(=O)C(C)Sc2nc3c(cnn3-c3ccccc3)c(=O)[nH]2)s1` (stereo not shown) [Example 11, N-(5-(ethylthio)-1,3,4-thiadiazol-2-yl)-2-((4-oxo-1-phenyl-4,5-dihydro-1H-pyrazolo[3,4-d]pyrimidin-6-yl)thio)propanamide], 10 nM; that for `O=C(CSc1nc2c(cnn2C2CCC(F)(F)CC2)c(=O)[nH]1)Nc1nnc(Cl)s1` [Example 1, 2-((1-(4,4-difluorocyclohexyl)-4-oxo-4,5-dihydro-1H-pyrazolo[3,4-d]pyrimidin-6-yl)thio)-N-(5-chloro-1,3,4-thiadiazol-2-yl)acetamide], 0.4 nM.
In turn, `O=C(CSc1nc2c(cnn2-c2ccccc2)c(=O)[nH]1)Nc1nnc(Cl)s1` [Example 30, N-(5-chloro-1,3,4-thiadiazol-2-yl)-2-((4-oxo-1-phenyl-4,5-dihydro-1H-pyrazolo[3,4-d]pyrimidin-6-yl)thio)acetamide] registered an IC50 of 18 nM.
The result for `CCSc1nnc(NC(=O)CSc2nc3c(cnn3C3CCSCC3)c(=O)[nH]2)s1` [Example 29, N-(5-(ethylthio)-1,3,4-thiadiazol-2-yl)-2-((4-oxo-1-(tetrahydro-2H-thiopyran-4-yl)-4,5-dihydro-1H-pyrazolo[3,4-d]pyrimidin-6-yl)thio)acetamide] reads 0.3 nM; that for `CCSc1nnc(NC(=O)CSc2nc3c(cnn3C3CCC(F)(F)CC3)c(=O)[nH]2)s1` [Example 19, 2-((1-(4,4-difluorocyclohexyl)-4-oxo-4,5-dihydro-1H-pyrazolo[3,4-d]pyrimidine-6-yl)thio)-N-(5-(ethylthio)-1,3,4-thiadiazol-2-yl)acetamide], 0.6 nM; that for `O=C(CSc1nc2c(cnn2C2CCSCC2)c(=O)[nH]1)Nc1nnc(Br)s1` [Example 32, N-(5-bromo-1,3,4-thiadiazol-2-yl)-2-((4-oxo-1-(tetrahydro-2H-thiopyran-4-yl)-4,5-dihydro-1H-pyrazolo[3,4-d]pyrimidin-6-yl)thio)acetamide], 0.6 nM.
On to `CC(C)(C)c1nnc(NC(=O)CSc2nc3c(cnn3-c3ccccc3)c(=O)[nH]2)s1` [Example 22, N-(5-(tertiary-butyl)-1,3,4-thiadiazol-2-yl)-2-((4-oxo-1-phenyl-4,5-dihydro-1H-pyrazolo[3,4-d]pyrimidin-6-yl)thio)acetamide], for which the IC50 was 100 nM.
`CCSc1nnc(NC(=O)C(C)Sc2nc3c(cnn3C3CCOCC3)c(=O)[nH]2)s1` (stereo not shown) [Example 45, N-(5-(ethylthio)-1,3,4-thiadiazol-2-yl)-2-((4-oxo-1-(tetrahydro-2H-pyran-4-yl)-4,5-dihydro-1H-pyrazolo[3,4-d]pyrimidin-6-yl)thio)propanamide] yielded an IC50 of 0.1 nM.
In turn, `CCSc1nnc(NC(=O)CSc2nc3c(cnn3C3CCOCC3)c(=O)[nH]2)s1` [Example 27, N-(5-(ethylthio)-1,3,4-thiadiazol-2-yl)-2-((4-oxo-1-(tetrahydro-2H-pyran-4-yl)-4,5-dihydro-1H-pyrazolo[3,4-d]pyrimidin-6-yl)thio)acetamide] showed an IC50 of 0.5 nM.
The result for `O=C(CSc1nc2c(cnn2C2CCC(F)(F)CC2)c(=O)[nH]1)Nc1nnc(Br)s1` [Example 21, 2-((1-(4,4-difluorocyclohexyl)-4-oxo-4,5-dihydro-1H-pyrazolo[3,4-d]pyrimidin-6-yl)thio)-N-(5-bromo-1,3,4-thiadiazol-2-yl)acetamide] reads 0.4 nM; that for `CC(C)n1ncc2c(=O)[nH]c(SCC(=O)Nc3nnc(Br)s3)nc21` [Example 38, N-(5-bromo-1,3,4-thiadiazol-2-yl)-2-((1-isopropyl-4-oxo-4,5-dihydro-1H-pyrazolo[3,4-d]pyrimidin-6-yl)thio)acetamide], 3 nM; that for `O=C(CSc1nc2c(cnn2C2CCCCC2)c(=O)[nH]1)Nc1nnc(Br)s1` [Example 35, N-(5-bromo-1,3,4-thiadiazol-2-yl)-2-((4-oxo-1-cyclohexyl-4,5-dihydro-1H-pyrazolo[3,4-d]pyrimidin-6-yl)thio)acetamide], 1 nM.
With `CCSc1nnc(N(C)C(=O)CSc2nc3c(cnn3-c3ccccc3)c(=O)[nH]2)s1` [Example 18, N-(5-(ethylthio)-1,3,4-thiadiazol-2-yl)-N-methyl-2-((4-oxo-1-phenyl-4,5-dihydro-1H-pyrazolo[3,4-d]pyrimidin-6-yl)thio)acetamide] the figure was 470 nM.
The molecule `CCSc1nnc(NC(=O)CSc2nc3c(cnn3C3CCCCC3)c(=O)[nH]2)s1` [Example 34, N-(5-(ethylthio)-1,3,4-thiadiazol-2-yl)-2-((4-oxo-1-cyclohexyl-4,5-dihydro-1H-pyrazolo[3,4-d]pyrimidin-6-yl)thio)acetamide] showed an IC50 of 1 nM.
With `Cc1nnc(NC(=O)C(C)Sc2nc3c(cnn3-c3ccccc3)c(=O)[nH]2)s1` (stereo not shown) [Example 10, N-(5-methyl-1,3,4-thiadiazol-2-yl)-2-((4-oxo-1-phenyl-4,5-dihydro-1H-pyrazolo[3,4-d]pyrimidin-6-yl)thio)propanamide] the figure was 150 nM; with “N-(5-(isopropylthio)-1,3,4-thiadiazol-2-yl)-2-((4-oxo-1-phenyl-4,5-dihydro-1H-pyrazolo[3,4-d]pyrimidin-6-yl)thio)acetamide [Example 14]”, 9 nM; with `O=C(CSc1nc2c(cnn2C2CCCCC2)c(=O)[nH]1)Nc1nnc(Cl)s1` [Example 42, N-(5-chloro-1,3,4-thiadiazol-2-yl)-2-((4-oxo-1-cyclohexyl-4,5-dihydro-1H-pyrazolo[3,4-d]pyrimidin-6-yl)thio)acetamide], 1 nM.
The result for `O=C(CSc1nc2c(cnn2C2CCOCC2)c(=O)[nH]1)Nc1nnc(Cl)s1` [Example 36, N-(5-chloro-1,3,4-thiadiazol-2-yl)-2-((4-oxo-1-(tetrahydro-2H-pyran-4-yl)-4,5-dihydro-1H-pyrazolo[3,4-d]pyrimidin-6-yl)thio)acetamide] reads 0.7 nM.
